Legend:
Assay in all cases: relative viability (nuclei count vs DMSO), 5 days (fraction); higher = more cells survive
FG-4592 + Pictilisib = compound: Cc1nc(C(=O)NCC(=O)O)c(O)c2ccc(Oc3ccccc3)cc12 [FG-4592] + CS(=O)(=O)N1CCN(Cc2cc3nc(-c4cccc5[nH]ncc45)nc(N4CCOCC4)c3s2)CC1 [Pictilisib] (partner 1 µM)
In short: (§1)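 Lung cancer cell lines in 1536-well plates got either a single drug or a fixed anchor-drug dose together with five library-drug doses (not always all listed) in √10 steps, by pin tool, on the day after seeding. Nuclei were counted after 5 days, and relative viability is the treated-to-vehicle ratio of nuclei counts. Values are medians of duplicate plates.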

FG-4592 + Dasatinib = compound: Cc1nc(C(=O)NCC(=O)O)c(O)c2ccc(Oc3ccccc3)cc12 [FG-4592] + Cc1nc(Nc2ncc(C(=O)Nc3c(C)cccc3Cl)s2)cc(N2CCN(CCO)CC2)n1 [Dasatinib] (partner 0.075 µM)
In short: as §1

FG-4592 + Navitoclax = compound: Cc1nc(C(=O)NCC(=O)O)c(O)c2ccc(Oc3ccccc3)cc12 [FG-4592] + CC1(C)CCC(c2ccc(Cl)cc2)=C(CN2CCN(c3ccc(C(=O)NS(=O)(=O)c4ccc(N[C@H](CCN5CCOCC5)CSc5ccccc5)c(S(=O)(=O)C(F)(F)F)c4)cc3)CC2)C1 [Navitoclax] (partner 0.5 µM)
In short: as §1

IU1-47 + Palbociclib = compound: CC1=CC(=C(N1C2=CC=C(C=C2)Cl)C)C(=O)CN3CCCCC3 [IU1-47] + CC(=O)c1c(C)c2cnc(Nc3ccc(N4CCNCC4)cn3)nc2n(C2CCCC2)c1=O [Palbociclib] (partner 0.5 µM)
In short: as §1

UMC-11 was tested. Which relative viability (FG-4592 + Pictilisib; first compound 0.08 µM) did it give?
The relative viability was 0.722.

And the relative viability (FG-4592 + Pictilisib; first compound 0.253 µM)?
The relative viability was 0.714.

What about the relative viability (FG-4592 + Pictilisib; first compound 0.8 µM) of the same cell line?
The relative viability was 0.599.

What about the relative viability (FG-4592 + Pictilisib; first compound 2.53 µM) of the same cell line?
The relative viability was 0.74.

What about the relative viability (FG-4592 + Pictilisib; first compound 8 µM) of the same cell line?
Its relative viability is 0.7.

What about the relative viability (FG-4592 + Dasatinib; first compound 0.08 µM) of the same cell line?
The relative viability was 0.439.

What about the relative viability (FG-4592 + Dasatinib; first compound 0.253 µM) of the same cell line?
The relative viability was 0.46.

And the relative viability (FG-4592 + Dasatinib; first compound 0.8 µM)?
Its relative viability is 0.447.

And the relative viability (FG-4592 + Dasatinib; first compound 2.53 µM)?
The relative viability was 0.417.

What about the relative viability (FG-4592 + Dasatinib; first compound 8 µM) of the same cell line?
Its relative viability is 0.493.

And the relative viability (FG-4592 + Navitoclax; first compound 0.08 µM)?
The relative viability was 0.391.

And the relative viability (FG-4592 + Navitoclax; first compound 0.253 µM)?
The relative viability was 0.321.

And the relative viability (FG-4592 + Navitoclax; first compound 0.8 µM)?
The relative viability was 0.29.

And the relative viability (FG-4592 + Navitoclax; first compound 2.53 µM)?
Its relative viability is 0.312.

And the relative viability (FG-4592 + Navitoclax; first compound 8 µM)?
The relative viability was 0.274.

And the relative viability (IU1-47 + Palbociclib; first compound 0.08 µM)?
Its relative viability is 0.353.

What about the relative viability (IU1-47 + Palbociclib; first compound 0.253 µM) of the same cell line?
Its relative viability is 0.339.

And the relative viability (IU1-47 + Palbociclib; first compound 0.8 µM)?
Its relative viability is 0.333.

What about the relative viability (IU1-47 + Palbociclib; first compound 2.53 µM) of the same cell line?
The relative viability was 0.322.

And the relative viability (IU1-47 + Palbociclib; first compound 8 µM)?
The relative viability was 0.351.
